Results published in patent US20140336138A1, “COMPOSITIONS AND METHODS FOR SCREENING AND TREATMENT OF STURGE-WEBER SYNDROME, KLIPPEL-TRENAUNAY-WEBER SYNDROME, AND PORT-WINE STAINS (PWSS)” (The Johns Hopkins University, priority 2013, published 2014).

Tests used:
RGS4 = conditions: cited from earlier work
RGS2 = conditions: cited from earlier work
phosphorylated-ERK = assay: Western analysis of phosphorylated-ERK in 293T cells transfected with GNAQ p.R183Q, normalized to tubulin; type: cell-based, human; conditions: 100 nM digoxin, 42 hours, p=0.0003
Procedure: 293T cells will be transiently transfected with wildtype, GNAQ, the p.Arg183Gln, or the p.Gln209Leu mutant constructs. Fugene6 (Promega) is used for the 293T transfections (3:1 ratio Fugene6:DNA). The cells are transfected at 60-75% confluency for about an hour.
Levels of phosphorylated-ERK (rabbit monoclonal Phospho-p44/42 MAPK (Erk1/2) Cell Signaling Technology) and phosphorylated-JNK are measured by western analysis and normalized to tubulin. RGS2 and/or RGS4 levels are measured by western analysis and normalized to tubulin. Protein samples are collected from three replicates per cell type and condition. Additionally, similar experiments are performed with the p.Gln209Leu GNAQ mutants as well.

[1] = system: cells transfected with the R183Q mutation; assay: Cell death / appearance of drug treated R183Q transfected cell cultures; type: cell-based, human; conditions: 100 nM digoxin

Row | SMILES | RGS4 protein levels (RGS4) | RGS2 protein levels (RGS2) | p-ERK increase (drug vs vehicle) (phosphorylated-ERK) | cell death in drug treated cell cultures ([1]; 18 hours) | cell death / growth in drug treated cells ([1]; 42 hours)
1 | C[C@@H]1O[C@@H](O[C@H]2C[C@@H](O)[C@]3(CO)[C@H]4[C@H](O)C[C@]5(C)[C@@H](C6=CC(=O)OC6)CC[C@]5(O)[C@@H]4CC[C@]3(O)C2)[C@H](O)[C@H](O)[C@H]1O [ouabain] | not | increase | – | – | –
2 | C[C@H]1O[C@@H](O[C@H]2[C@@H](O)C[C@H](O[C@H]3[C@@H](O)C[C@H](O[C@H]4CC[C@@]5(C)[C@H](CC[C@@H]6[C@@H]5C[C@@H](O)[C@]5(C)[C@@H](C7=CC(=O)OC7)CC[C@]65O)C4)O[C@@H]3C)O[C@@H]2C)C[C@H](O)[C@@H]1O [digoxin] | not | increase | about 3.9 fold | increased cell death | increased cell death/less growth
